Consider ten compounds from PMC9924091 (Journal of Medicinal Chemistry, 2023).

Molecules are shown by their SMILES. Like-named read-outs stand apart in the source and are kept apart here.

One data set concerns the target T1, SARS-CoV-2 PL^pro (Severe acute respiratory syndrome coronavirus 2, UniProt P0DTD1).
T1 construct: PL^pro papain-like protease
The data set is described as follows: SPE-MS SARS-CoV-2 PL^pro inhibition assay. Format: biochemical.

For data set [1], the target named is T2, SARS-CoV-2 M^pro (Severe acute respiratory syndrome coronavirus 2, UniProt P0DTD1). To be noted: M^pro 2.0 μM, inhibitor 10 μM, 20 mM HEPES pH 7.5, 90 min, ambient temperature.
Data set [2] concerns SARS-CoV-2 virus (Victoria strain) in VeroE6 cells. Put plainly: microbe, parasite or virus in culture. Format: cell-based.
In data set [3] the target is T2, SARS-CoV-2 M^pro. Format: biochemical. More on the design: M^pro main protease; made in house.

Consider `CC1(C)[C@@H]2[C@@H](C(=O)N[C@H](C#N)C[C@@H]3CCNC3=O)N(C(=O)COc3ccc(C(F)(F)F)cc3)C[C@@H]21` [Compound 21], for which the “inhibition of SARS-CoV-2 PL^pro (in words)” value on SARS-CoV-2 PL^pro is recorded as “None of the tested M^pro inhibitors inhibited SARS-CoV-2 PL^pro”.

As to `CC(C)(C)[C@H](NC(=O)C(F)(F)F)C(=O)N1C[C@H]2[C@@H]([C@H]1C(=O)N[C@H](C#Cc1ccccc1)C[C@@H]1CCNC1=O)C2(C)C` [Compound 27a], the “inhibition of SARS-CoV-2 PL^pro (in words)” value at SARS-CoV-2 PL^pro (SPE-MS PL^pro inhibition assay) was “None of the tested M^pro inhibitors inhibited SARS-CoV-2 PL^pro”. Besides, on SARS-CoV-2 M^pro [1], the “covalent reaction with M^pro by protein-observed SPE-MS (in words)” value is recorded as “reacts covalently”.

`C#C[C@H](CCSC)NC(=O)[C@@H]1[C@@H]2[C@H](CN1C(=O)[C@@H](NC(=O)C(F)(F)F)C(C)(C)C)C2(C)C` [Compound 14]: the “inhibition of SARS-CoV-2 PL^pro (in words)” value on SARS-CoV-2 PL^pro is recorded as “None of the tested M^pro inhibitors inhibited SARS-CoV-2 PL^pro”.

Regarding `C#C[C@H](C[C@@H]1CCNC1=O)NC(=O)[C@H](CC(C)C)NC(=O)OCc1ccccc1` [Compound 23], the “inhibition of SARS-CoV-2 progression in infected VeroE6 cells (in words)” value (from here on “inhibition … in infected VeroE6 cells (in words)”) in data set [2] is recorded as “did not show any inhibitory activity over the tested concentration range”. Besides, on SARS-CoV-2 PL^pro, the “inhibition of SARS-CoV-2 PL^pro (in words)” value is reported as “None of the tested M^pro inhibitors inhibited SARS-CoV-2 PL^pro”.

For `C#C[C@H](C[C@@H]1CCNC1=O)NC(=O)[C@@H]1[C@@H]2[C@H](CN1C(=O)COc1ccc(OC(F)(F)F)cc1)C2(C)C` [Compound 18], the “inhibition … in infected VeroE6 cells (in words)” value in data set [2] is on record as “did not show any inhibitory activity over the tested concentration range”. The “inhibition of SARS-CoV-2 PL^pro (in words)” value on SARS-CoV-2 PL^pro is “None of the tested M^pro inhibitors inhibited SARS-CoV-2 PL^pro”.

For the compound `CC1(C)[C@@H]2[C@@H](C(=O)N[C@H](C#N)C[C@@H]3CCNC3=O)N(C(=O)COc3ccc(OC(F)(F)F)cc3)C[C@@H]21` [Compound 20], the “inhibition of SARS-CoV-2 PL^pro (in words)” value against SARS-CoV-2 PL^pro is recorded as “None of the tested M^pro inhibitors inhibited SARS-CoV-2 PL^pro”.

`CC(C)(C)[C@H](NC(=O)C(F)(F)F)C(=O)N1C[C@H]2[C@@H]([C@H]1C(=O)N[C@H](C#Cc1ccc([N+](=O)[O-])cc1)C[C@@H]1CCNC1=O)C2(C)C` [Compound 27b]: on SARS-CoV-2 PL^pro, the “inhibition of SARS-CoV-2 PL^pro (in words)” value is listed as “None of the tested M^pro inhibitors inhibited SARS-CoV-2 PL^pro”.

Consider `CSCC[C@@H](C#N)NC(=O)[C@@H]1[C@@H]2[C@H](CN1C(=O)[C@@H](NC(=O)C(F)(F)F)C(C)(C)C)C2(C)C` [Compound 15], for which, in data set [2], the “fold less efficient inhibition of SARS-CoV-2 progression in infected VeroE6 cells than nirmatrelvir (1)” value is around 5 fold. In data set [2] (Severe acute respiratory syndrome coronavirus 2, Vero C1008), this compound yielded an EC50 of around 11.8 µM. In addition, on SARS-CoV-2 PL^pro, the “inhibition of SARS-CoV-2 PL^pro (in words)” value is “None of the tested M^pro inhibitors inhibited SARS-CoV-2 PL^pro”. The IC50 at SARS-CoV-2 PL^pro (isolated recombinant SARS-CoV-2 PL^pro, SPE-MS, n = 2, mean ± SD) is above 100 µM. For the same compound, on SARS-CoV-2 M^pro [3], the IC50 was found to be 0.89 ± 0.17 µM and the “fold less efficient inhibition of isolated M^pro (higher IC50) than alkyne 13” value is around 6 fold.

In the case of `CC(C)(C)[C@H](NC(=O)C(F)(F)F)C(=O)N1C[C@H]2[C@@H]([C@H]1C(=O)N[C@H](C#CC(F)(F)F)C[C@@H]1CCNC1=O)C2(C)C` [Compound 28], the “inhibition of SARS-CoV-2 PL^pro (in words)” value on SARS-CoV-2 PL^pro is “None of the tested M^pro inhibitors inhibited SARS-CoV-2 PL^pro”.

With `C#C[C@H](C[C@@H]1CCNC1=O)NC(=O)[C@@H]1[C@@H]2[C@H](CN1C(=O)COc1ccc(C(F)(F)F)cc1)C2(C)C` [Compound 19], the “inhibition … in infected VeroE6 cells (in words)” value in data set [2] was “did not show any inhibitory activity over the tested concentration range”. For the same compound, the “inhibition of SARS-CoV-2 PL^pro (in words)” value against SARS-CoV-2 PL^pro is given as “None of the tested M^pro inhibitors inhibited SARS-CoV-2 PL^pro”.

Usually EC50 stands for the concentration giving half of the maximal effect. Read a high EC50 as a need for much substance. The term IC50 denotes the midpoint of a concentration-inhibition curve.
